Experimental data: the NIST ThermoML archive (doi:10.1021/acs.jced.9b00152)
± gives the expanded uncertainty stated by the source.

Columns and labels:
[1] = Liquid, Ebulliometric method (Recirculating still)
[2] = Boiling temperature at pressure P; conditions: Liquid, Ebulliometric method (Recirculating still)

CC(=O)OC(C)C [1-methylethyl ethanoate]
vapor or sublimation pressure ([1]; 317.77 K): 20 ± 1 kPa | vapor or sublimation pressure ([1]; 334.75 K): 40 ± 1 kPa | vapor or sublimation pressure ([1]; 345.94 K): 60 ± 1 kPa | vapor or sublimation pressure ([1]; 354.29 K): 80 ± 1 kPa | vapor or sublimation pressure ([1]; 361.79 K): 101.3 ± 1.7 kPa

CC(=O)O [acetic acid]
Boiling temperature at pressure P ([2]; 17 kPa): 68.2 ± 0.47 °C | Boiling temperature at pressure P ([2]; 18.47 kPa): 69.72 ± 0.54 °C | Boiling temperature at pressure P ([2]; 20.01 kPa): 71.88 ± 0.58 °C | Boiling temperature at pressure P ([2]; 21.29 kPa): 73.26 ± 0.55 °C | Boiling temperature at pressure P ([2]; 23.18 kPa): 75.34 ± 0.58 °C | Boiling temperature at pressure P ([2]; 24.92 kPa): 77.20 ± 0.59 °C | Boiling temperature at pressure P ([2]; 27.44 kPa): 79.73 ± 0.6 °C | Boiling temperature at pressure P ([2]; 29.78 kPa): 81.86 ± 0.6 °C | Boiling temperature at pressure P ([2]; 32.78 kPa): 84.39 ± 0.61 °C | Boiling temperature at pressure P ([2]; 34.97 kPa): 86.11 ± 0.61 °C | Boiling temperature at pressure P ([2]; 39.99 kPa): 89.89 ± 0.6 °C | Boiling temperature at pressure P ([2]; 48.99 kPa): 95.41 ± 0.64 °C | Boiling temperature at pressure P ([2]; 55.76 kPa): 99.12 ± 0.67 °C | Boiling temperature at pressure P ([2]; 60.04 kPa): 101.39 ± 0.67 °C | Boiling temperature at pressure P ([2]; 64.44 kPa): 103.51 ± 0.68 °C | Boiling temperature at pressure P ([2]; 69.39 kPa): 105.90 ± 0.7 °C | Boiling temperature at pressure P ([2]; 75.23 kPa): 108.5 ± 0.67 °C | Boiling temperature at pressure P ([2]; 79.98 kPa): 110.17 ± 0.67 °C | Boiling temperature at pressure P ([2]; 83.66 kPa): 111.67 ± 0.7 °C | Boiling temperature at pressure P ([2]; 87.18 kPa): 112.92 ± 0.68 °C | Boiling temperature at pressure P ([2]; 97.08 kPa): 116.43 ± 0.73 °C | Boiling temperature at pressure P ([2]; 101.3 kPa): 117.78 ± 0.71 °C | vapor or sublimation pressure ([1]; 345.03 K): 20 ± 1 kPa | vapor or sublimation pressure ([1]; 363.04 K): 40 ± 1 kPa | vapor or sublimation pressure ([1]; 374.54 K): 60 ± 1 kPa | vapor or sublimation pressure ([1]; 383.32 K): 80 ± 1 kPa | vapor or sublimation pressure ([1]; 390.93 K): 101.3 ± 1.6 kPa

CCCOC(C)=O [propyl ethanoate]
Boiling temperature at pressure P ([2]; 14.9 kPa): 49.47 ± 0.51 °C | Boiling temperature at pressure P ([2]; 16.6 kPa): 51.86 ± 0.55 °C | Boiling temperature at pressure P ([2]; 18.56 kPa): 54.62 ± 0.58 °C | Boiling temperature at pressure P ([2]; 20 kPa): 56.43 ± 0.53 °C | Boiling temperature at pressure P ([2]; 24.75 kPa): 61.56 ± 0.59 °C | Boiling temperature at pressure P ([2]; 27.99 kPa): 64.63 ± 0.57 °C | Boiling temperature at pressure P ([2]; 33.06 kPa): 68.81 ± 0.6 °C | Boiling temperature at pressure P ([2]; 37.76 kPa): 72.40 ± 0.64 °C | Boiling temperature at pressure P ([2]; 40.07 kPa): 74.06 ± 0.62 °C | Boiling temperature at pressure P ([2]; 44.38 kPa): 76.90 ± 0.64 °C | Boiling temperature at pressure P ([2]; 48.69 kPa): 79.58 ± 0.62 °C | Boiling temperature at pressure P ([2]; 54.33 kPa): 82.51 ± 0.63 °C | Boiling temperature at pressure P ([2]; 60.03 kPa): 85.5 ± 0.65 °C | Boiling temperature at pressure P ([2]; 66.87 kPa): 88.7 ± 0.66 °C | Boiling temperature at pressure P ([2]; 73.94 kPa): 91.7 ± 0.67 °C | Boiling temperature at pressure P ([2]; 79.95 kPa): 93.98 ± 0.67 °C | Boiling temperature at pressure P ([2]; 85.25 kPa): 95.92 ± 0.69 °C | Boiling temperature at pressure P ([2]; 91.51 kPa): 98.26 ± 0.7 °C | Boiling temperature at pressure P ([2]; 101.26 kPa): 101.51 ± 0.73 °C | vapor or sublimation pressure ([1]; 329.58 K): 20 ± 1 kPa | vapor or sublimation pressure ([1]; 347.21 K): 40 ± 1 kPa | vapor or sublimation pressure ([1]; 358.6 K): 60 ± 1 kPa | vapor or sublimation pressure ([1]; 367.13 K): 80 ± 1 kPa | vapor or sublimation pressure ([1]; 374.66 K): 101.3 ± 1.7 kPa
